In patent US20250326708A1, “LONG-ACTING SPLEEN-TARGETING CATIONIC LIPID COMPOUND COMPRISING BENZENE RING STRUCTURE, COMPOSITION COMPRISING SAME, AND USE THEREOF” (Beijing Youcarekechuang Pharmaceutical Technology Co., Ltd., priority 2024, published 2025):

Legend:
293T cells = assay: Cell viability assay (CCK-8) with LNP preparations of Fluc-mRNA; format: cell-based
In short: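 293T cells seeded at 10,000/well and cultured overnight, then given LNPs (cationic lipid:DSPC:cholesterol:DMG-PEG2000 49:10:39.5:1.5) carrying 1.5 μg Fluc-mRNA. After 24 h, viability measured by CCK-8 with 1 h incubation.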

female BALB/C mice [1] = assay: Distribution of delivered small nucleic acid drug (Cy5 fluorescently labeled Leqvio) in different organs of mice; format: in vivo
Description: LNP preparations containing 5 μg of Cy5 fluorescently labeled Leqvio were injected via the tail vein into female BALB/C mice (4 to 6 weeks old, weighing 17 to 19 g). At a specific time point after administration (4 h), the average radiation intensity (corresponding to fluorescence intensity) resulting from the Cy5 fluorescently labeled Leqvio delivered by the LNP preparations in the mice in vivo was detected using the IVIS Spectrum small-animal in vivo imaging system. After sampling, the mice were killed by cervical dislocation and dissected, and the internal organs: heart, liver, spleen, lung, kidney, and lymph of mice were accurately isolated. The average radiation intensity (corresponding to fluorescence intensity) resulting from Cy5 fluorescently labeled Leqvio delivered by the LNP preparations in various organs of mice was then detected using the IVIS Spectrum small-animal in vivo imaging system.

female BALB/C mice [2] = assay: Expression of delivered mRNA in different organs of mice (organ imaging); format: in vivo
In short: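 Female BALB/C mice (4–6 weeks, 17–19 g) received LNPs carrying 5 μg Fluc-mRNA subcutaneously. At 6 h, imaging substrate was given i.p.; after 5 min, whole-body and then excised-organ (heart, liver, spleen, lung, kidney, lymph) average radiance was measured by IVIS Spectrum imaging.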

[3] = Particle size and polydispersity index (PDI) of lipid nanoparticles, dynamic light scattering; format: physicochemical; conditions: LNP preparation with the named cationic lipid; 90° scattering angle, 25° C
In short: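 LNPs of cationic lipid:DSPC:cholesterol:DMG-PEG2000 (49:10:39.5:1.5 molar) encapsulating eGFP or Fluc mRNA at 15:1 lipid:mRNA weight ratio, made by ethanol injection into citrate buffer pH 4–5, sonication, and ultrafiltration into PBS. Size and PDI by DLS at 90° and 25° C after dilution in water, three measurements per sample.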

female BALB/C mice [4] = assay: Expression of delivered mRNA in mice in vivo (IVIS in vivo imaging); conditions: for Expression level of mRNA in vivo, times that of YK-904: vs YK-904; for Average radiation intensity, in vivo imaging: 10 μg Fluc-mRNA via tail vein; for Expression level of mRNA in vivo, times that of SM-102: vs SM-102; for Expression level of mRNA in vivo, times that of YK-501: vs YK-501; for Expression level of mRNA in vivo, times that of YK-506: vs YK-506; for Expression level of mRNA in vivo, times that of compound 7: vs compound 7
In short: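 Female BALB/c mice (4–6 weeks, 17–19 g) received LNPs carrying 10 μg Fluc-mRNA via tail vein. At 6 h, 24 h, 48 h and 7 d, imaging substrate was given i.p. and, after 5 min, average radiance was measured by IVIS Spectrum imaging.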

[5] = 4 hours after 5 μg Cy5 fluorescently labeled Leqvio via tail vein
[6] = 6 hours after 5 μg Fluc-mRNA subcutaneously

CCCCCCCCCCCOC(=O)CCCN(CCCCCCC(=O)OCCC(CCCCCC)CCCCCC)CCNC(CO)(CO)CCc1ccc(CCCCCCCC)cc1 [YK-910, 3-hexylnonyl 7-((2-((1-hydroxy-2-(hydroxymethyl)-4-(4-octylphenyl)butan-2-yl)amino)ethyl) (4-oxo-4-(undecyloxy)butyl)amino) heptanoate]
Cell viability (293T cells; LNP with 1.5 μg Fluc-mRNA, 24 hours, CCK-8): 94%
Cell viability higher than that of HHMA (293T cells; difference vs HHMA): 17%
Cell viability higher than that of I-1 (293T cells; difference vs I-1): 26%
Cell viability higher than that of Lipofectamine 3000 (293T cells; difference vs Lipofectamine 3000): 63%
Cell viability higher than that of MC3 (293T cells; difference vs MC3): 20%
Cell viability higher than that of SM-102 (293T cells; difference vs SM-102): 12%
Cell viability higher than that of YK-501 (293T cells; difference vs YK-501): 31%
Cytotoxicity lower than that of YK-902 (293T cells; difference vs YK-902): 58%
Cell viability higher than that of YK-906 (293T cells; difference vs YK-906): 31%
Cell viability higher than that of compound 7 (293T cells; difference vs compound 7): 21%
Average radiation intensity of mouse organs: Heart (female BALB/C mice [1]; [5]): 0
Average radiation intensity of mouse organs: Kidney (female BALB/C mice [1]; [5]): 53243
Average radiation intensity of mouse organs: Liver (female BALB/C mice [1]; [5]): 33583
Average radiation intensity of mouse organs: Lung (female BALB/C mice [1]; [5]): 0
Average radiation intensity of mouse organs: Lymph (female BALB/C mice [1]; [5]): 0
Average radiation intensity of mouse organs: Spleen (female BALB/C mice [1]; [5]): 63583
Fluorescence intensity in the spleen, times that of SM-102 (female BALB/C mice [1]; Cy5 Leqvio, spleen, 4 h, vs SM-102): 51.19 times
Fluorescence intensity in the spleen, times that of YK-501 (female BALB/C mice [1]; Cy5 Leqvio, spleen, 4 h, vs YK-501): 11.91 times
Fluorescence intensity in the spleen, times that of YK-506 (female BALB/C mice [1]; Cy5 Leqvio, spleen, 4 h, vs YK-506): 2.85 times
Fluorescence intensity in the spleen, times that of direct administration (female BALB/C mice [1]; Cy5 Leqvio, spleen, 4 h, vs direct administration): 150.67 times
Average radiation intensity of mouse organs: Heart (female BALB/C mice [2]; [6]): 0
Average radiation intensity of mouse organs: Kidney (female BALB/C mice [2]; [6]): 0
Average radiation intensity of mouse organs: Liver (female BALB/C mice [2]; [6]): 11424
Average radiation intensity of mouse organs: Lung (female BALB/C mice [2]; [6]): 0
Average radiation intensity of mouse organs: Lymph (female BALB/C mice [2]; [6]): 0
Average radiation intensity of mouse organs: Spleen (female BALB/C mice [2]; [6]): 242444
Expression level of mRNA in the spleen, times that of SM-102 (female BALB/C mice [2]; spleen, 6 h, vs SM-102): 9.49 times
Expression level of mRNA in the spleen, times that of YK-501 (female BALB/C mice [2]; spleen, 6 h, vs YK-501): 17.04 times
Expression level of mRNA in the spleen, times that of YK-506 (female BALB/C mice [2]; spleen, 6 h, vs YK-506): 3.40 times
PDI [3]: 10.3%
Particle size [3]: 126 nm
Expression level of mRNA in vivo, times that of YK-904 (female BALB/C mice [4]; 6 h): 12.03 times
Average radiation intensity, in vivo imaging (female BALB/C mice [4]; 6 h): 13425454
Expression level of mRNA in vivo, times that of SM-102 (female BALB/C mice [4]; 24 h): 6.78 times
Expression level of mRNA in vivo, times that of YK-501 (female BALB/C mice [4]; 24 h): 12.21 times
Expression level of mRNA in vivo, times that of YK-506 (female BALB/C mice [4]; 24 h): 8.28 times
Expression level of mRNA in vivo, times that of YK-904 (female BALB/C mice [4]; 24 h): 18.49 times
Expression level of mRNA in vivo, times that of compound 7 (female BALB/C mice [4]; 24 h): 11.50 times
Average radiation intensity, in vivo imaging (female BALB/C mice [4]; 24 h): 2133322
Expression level of mRNA in vivo, times that of YK-904 (female BALB/C mice [4]; 48 h): 23.07 times
Average radiation intensity, in vivo imaging (female BALB/C mice [4]; 48 h): 658643
Expression level of mRNA in vivo, times that of SM-102 (female BALB/C mice [4]; 7 d): 9.24 times
Expression level of mRNA in vivo, times that of YK-501 (female BALB/C mice [4]; 7 d): 15.15 times
Expression level of mRNA in vivo, times that of YK-506 (female BALB/C mice [4]; 7 d): 2.49 times
Expression level of mRNA in vivo, times that of YK-904 (female BALB/C mice [4]; 7 d): 26.32 times
Expression level of mRNA in vivo, times that of compound 7 (female BALB/C mice [4]; 7 d): 10.03 times
Average radiation intensity, in vivo imaging (female BALB/C mice [4]; 7 d): 85363
